Legend:
CYP2C9 = CYP2C9 (Homo sapiens, UniProt P11712); experiment: Inhibition of CYP2C9 (unknown origin) at 3 uM; format: ADME
Progesterone receptor = target: T1, Progesterone receptor (Homo sapiens, UniProt P06401); experiment: Antagonist activity at PR (unknown origin)
T1 sequence (P06401 whole entry): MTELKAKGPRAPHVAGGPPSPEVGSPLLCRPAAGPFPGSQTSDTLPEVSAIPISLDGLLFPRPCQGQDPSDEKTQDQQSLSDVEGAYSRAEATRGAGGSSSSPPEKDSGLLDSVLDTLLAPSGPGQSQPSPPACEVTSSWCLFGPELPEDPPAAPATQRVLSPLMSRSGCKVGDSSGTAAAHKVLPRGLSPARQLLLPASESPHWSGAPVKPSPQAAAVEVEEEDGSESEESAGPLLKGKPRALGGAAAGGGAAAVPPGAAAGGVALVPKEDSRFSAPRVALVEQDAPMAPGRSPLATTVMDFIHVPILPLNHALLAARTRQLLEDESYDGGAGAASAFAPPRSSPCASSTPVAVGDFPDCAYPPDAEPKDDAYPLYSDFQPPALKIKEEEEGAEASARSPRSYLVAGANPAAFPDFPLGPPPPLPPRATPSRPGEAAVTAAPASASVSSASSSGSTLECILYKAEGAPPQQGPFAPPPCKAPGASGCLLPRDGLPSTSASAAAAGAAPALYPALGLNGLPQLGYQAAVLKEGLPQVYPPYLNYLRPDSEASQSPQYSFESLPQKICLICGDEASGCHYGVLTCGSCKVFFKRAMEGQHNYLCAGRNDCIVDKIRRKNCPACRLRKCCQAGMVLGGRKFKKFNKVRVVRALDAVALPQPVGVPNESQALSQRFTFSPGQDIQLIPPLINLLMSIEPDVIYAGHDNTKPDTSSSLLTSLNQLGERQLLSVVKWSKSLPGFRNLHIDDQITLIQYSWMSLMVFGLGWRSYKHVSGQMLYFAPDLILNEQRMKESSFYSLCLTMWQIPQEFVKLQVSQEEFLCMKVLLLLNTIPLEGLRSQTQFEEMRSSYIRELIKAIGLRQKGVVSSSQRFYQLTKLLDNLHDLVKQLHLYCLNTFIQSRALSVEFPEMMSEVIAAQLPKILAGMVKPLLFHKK

[1] = Dissociation constant, pKa of the compound; format: physicochemical

Sequence of CYP2C9 (P11712 whole entry): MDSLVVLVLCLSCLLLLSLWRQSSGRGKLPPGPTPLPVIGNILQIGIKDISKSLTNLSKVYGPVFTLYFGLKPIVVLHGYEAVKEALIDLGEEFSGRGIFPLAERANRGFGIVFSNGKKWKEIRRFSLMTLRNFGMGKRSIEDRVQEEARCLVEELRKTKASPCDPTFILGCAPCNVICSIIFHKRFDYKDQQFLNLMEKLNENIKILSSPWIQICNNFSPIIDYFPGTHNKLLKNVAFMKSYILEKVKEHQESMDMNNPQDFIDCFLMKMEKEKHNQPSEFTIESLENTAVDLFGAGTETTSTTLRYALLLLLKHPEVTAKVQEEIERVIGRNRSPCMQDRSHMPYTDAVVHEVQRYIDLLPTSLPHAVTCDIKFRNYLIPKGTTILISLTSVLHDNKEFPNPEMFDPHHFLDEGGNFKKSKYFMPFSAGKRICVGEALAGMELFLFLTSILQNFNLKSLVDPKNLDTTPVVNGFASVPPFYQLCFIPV

SMILES	inhibition at 3 µM (CYP2C9)	IC50 (Progesterone receptor)	pKa [1]
N#Cc1ccc(O[C@H]2CC[C@H](NS(=O)(=O)C(F)(F)F)CC2)cc1Cl	77%	43 nM	
COc1cc(NS(=O)(=O)C(F)(F)F)cc(OC)c1Oc1ccc(C#N)c(Cl)c1	95%	175 nM	4.5
CS(=O)(=O)N[C@H]1CC[C@H](Oc2ccc(C#N)c(Cl)c2)CC1	0%	107 nM	
COc1cc(NS(C)(=O)=O)cc(OC)c1Oc1ccc(C#N)c(Cl)c1	9%	26 nM	8.5
